Experimental data published in patent US9115151B2, “Substituted 2,10-dihydro-9-oxa-1,2,4A-triazaphenanthren-3-ones and uses thereof” (AbbVie Inc., priority 2012, dated 2015).

Assays:
[1] = biological target: T1, PKCθ (Homo sapiens, UniProt Q04759); assay: In vitro enzyme assay (time-resolved fluorescence kinase assay), PKCθ, 100 μM ATP; assay type: biochemical
T1 construct: His6; purchased Millipore; host or cells: baculovirus in Sf21 cells
Method in brief: (§1)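 Read-out was time-resolved fluorescence, corrected for a minus-enzyme blank and converted to percent activity relative to enzyme without drug. They were stopped with EDTA.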

[2] = tested on: CD3/CD28 induced IL-2 in human T-Blasts; assay: T-Blasts CD3/CD28 induced IL-2 assay; assay type: cell-based; settings: read-out: CD3/CD28-stimulated IL2 in T-blasts EC50
Method in brief: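 PHA-generated human T-blasts, 2×10^5 per well, preincubated 30 min with 8-point 1/3 compound dilutions in duplicate, then stimulated with anti-CD3+anti-CD28 (5 μg/mL final) for 24 h at 37° C. Supernatant IL-2 measured; MTT toxicity run on remaining cells.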

[3] = biological target: T2, PKCα (Homo sapiens, UniProt P17252); assay: In vitro enzyme assay (time-resolved fluorescence kinase assay), PKCα, 100 μM ATP; assay type: biochemical; settings: 100 μM ATP; read-out: PKCα enzyme IC50
T2 construct: His6; purchased Millipore; host or cells: baculovirus in Sf21 cells
Method in brief: as §1

T1 sequence (Q04759 whole entry): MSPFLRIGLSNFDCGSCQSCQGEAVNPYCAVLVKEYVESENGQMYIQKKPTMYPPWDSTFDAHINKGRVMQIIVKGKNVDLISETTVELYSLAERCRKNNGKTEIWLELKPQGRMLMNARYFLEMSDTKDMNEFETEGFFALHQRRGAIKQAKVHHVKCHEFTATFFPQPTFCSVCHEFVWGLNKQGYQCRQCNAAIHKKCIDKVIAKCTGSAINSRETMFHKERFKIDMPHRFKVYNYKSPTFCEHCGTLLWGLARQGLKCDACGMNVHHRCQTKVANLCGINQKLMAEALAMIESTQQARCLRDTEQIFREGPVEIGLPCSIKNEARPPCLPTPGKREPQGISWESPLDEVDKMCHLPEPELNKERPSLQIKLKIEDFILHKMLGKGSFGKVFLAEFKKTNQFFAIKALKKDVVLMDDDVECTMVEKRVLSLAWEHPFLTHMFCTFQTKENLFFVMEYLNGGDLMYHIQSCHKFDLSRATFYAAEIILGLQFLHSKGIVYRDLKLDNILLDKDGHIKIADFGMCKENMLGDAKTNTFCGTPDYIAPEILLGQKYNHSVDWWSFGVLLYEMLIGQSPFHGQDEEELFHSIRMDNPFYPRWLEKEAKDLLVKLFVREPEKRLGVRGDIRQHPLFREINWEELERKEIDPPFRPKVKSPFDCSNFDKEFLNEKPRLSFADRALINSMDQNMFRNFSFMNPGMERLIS

SMILES	IC50 [1]	EC50 [2]	IC50 [3]
CC1C(=O)NN=C2COc3cc(-c4ccc(C#N)cc4)c(N(C)C4(C)CN(C)C4)cc3N21 (stereo not drawn) [Example 174]	< 0.25 µM	0.25 to 1 µM	1 to 10 µM
CC1C(=O)NN=C2COc3cc(-c4cccc(C(F)(F)F)c4)c(NC4CNC4)cc3N21 (racemic) [Example 24]	0.25 to 1 µM	< 0.25 µM	1 to 10 µM
C[C@@H]1C(=O)NN=C2COc3cc(-c4ccc(F)cc4F)c([C@@H]4CCN(C)C[C@@H]4C)cc3N21 [Example 238]	< 0.25 µM	< 0.25 µM	< 0.25 µM
Cc1ccc(F)c(-c2cc3c(cc2NC2CNC2)N2C(=NNC(=O)C2C)CO3)c1 (racemic) [Example 31]	< 0.25 µM	0.25 to 1 µM	1 to 10 µM
CC1C(=O)NN=C2COc3cc(-c4ccco4)c(N(C)C4(C)CN(C)C4)cc3N21 (stereo not drawn) [Example 171]	< 0.25 µM	< 0.25 µM	1 to 10 µM
Cc1cc(-c2cc3c(cc2NC2CNC2)N2C(=NNC(=O)C2C)CO3)ccc1F (racemic) [Example 32]	< 0.25 µM	0.25 to 1 µM	1 to 10 µM
CC(C)c1cc2c(cc1OC1(C)CNC1)N1C(=NNC(=O)[C@@H]1C)CO2 (single isomer, unassigned) [Example 121-1, trifluoroacetic acid]	< 0.25 µM	0.25 to 1 µM	1 to 10 µM
C[C@@H]1CN(C)[C@@H](C)CN1c1cc2c(cc1-c1ccccc1F)OCC1=NNC(=O)[C@@H](C)N12 [Example 246, (R)-7-(2-Fluoro-phenyl)-4-methyl-6-((2R,5S)-2,4,5-trimethyl-piperazin-1-yl)-2,10-dihydro-9-oxa-1,2,4a-triaza-phenanthren-3-one]	< 0.25 µM	< 0.25 µM	0.25 to 1 µM
C[C@@H]1C(=O)NN=C2COc3cc(-c4ccccc4)c(NC4CNC4)cc3N21 (single isomer, unassigned) [Example 1-1, trifluoroacetic acid]	< 0.25 µM	< 0.25 µM	1 to 10 µM
CC1C(=O)NN=C2COc3cc(-c4ccc(F)cc4F)c(NC4CNC4)cc3N21 (racemic) [Example 47]	< 0.25 µM	< 0.25 µM	1 to 10 µM
C[C@@H]1C(=O)NN=C2COc3cc4c(cc3N21)N([C@@H]1CCNC1)CC4 [Example 153, (R)-1-Methyl-10-(R)-pyrrolidin-3-yl-3,5,9,10-tetrahydro-8H-6-oxa-3,4,10,11b-tetraaza-cyclopenta[b]phenanthren-2-one hydrochloric acid]	0.25 to 1 µM	1 to 10 µM	1 to 10 µM
C[C@H](O)CN1CC(C)([C@H](C)c2cc3c(cc2-c2ccccc2F)OCC2=NNC(=O)[C@@H](C)N23)C1 [Example 139, (R)-7-(2-Fluoro-phenyl)-6-{(R)-1-[1-((S)-2-hydroxy-propyl)-3-methyl-azetidin-3-yl]-ethyl}-4-methyl-2,10-dihydro-9-oxa-1,2,4a-triaza-phenanthren-3-one hydrochloric acid]	< 0.25 µM	< 0.25 µM	< 0.25 µM
C[C@@H]1C(=O)NN=C2COc3cc(-c4ccc(Cl)cc4)c(NC4CNC4)cc3N21 [Example 7]	< 0.25 µM	< 0.25 µM	1 to 10 µM
CCc1cc2c(cc1NC1CNC1)N1C(=NNC(=O)C1C)CO2 (stereo not drawn) [Example 59]	< 0.25 µM	0.25 to 1 µM	1 to 10 µM
Cc1cc2c(cc1OC1CNC1)N1C(=NNC(=O)C1C)CO2 (stereo not drawn) [Example 67]	< 0.25 µM	< 0.25 µM	1 to 10 µM
COc1ccc(-c2cc3c(cc2NC2CNC2)N2C(=NNC(=O)C2C)CO3)cc1 (racemic) [Example 30]	< 0.25 µM	0.25 to 1 µM	1 to 10 µM
CC(=O)N1CC(C)(n2ccc3cc4c(cc32)N2C(=NNC(=O)[C@H]2C)CO4)C1 [Example 155, (R)-10-(1-Acetyl-3-methyl-azetidin-3-yl)-1-methyl-3,5-dihydro-10H-6-oxa-3,4,10,11b-tetraaza-cyclopenta[b]phenanthren-2-one hydrochloric acid]	< 0.25 µM	0.25 to 1 µM	1 to 10 µM
C[C@@H]1C(=O)NN=C2COc3cc(-c4ccccc4F)c(N(C)C4(C)CN(CCO)C4)cc3N21 [Example 191]	< 0.25 µM	< 0.25 µM	0.25 to 1 µM
C[C@@H]1C(=O)NN=C2COc3cc(-c4ccccc4F)c([C@@H]4CCNC4)cc3N21 [Example 215]	< 0.25 µM	< 0.25 µM	1 to 10 µM
CC1C(=O)NN=C2COc3cc4c(cc3N21)N(C1(C)CNC1)CC4 (stereo not drawn) [Example 158, 1-Methyl-10-(3-methyl-azetidin-3-yl)-3,5,9,10-tetrahydro-8H-6-oxa-3,4,10,11b-tetraaza-cyclopenta[b]phenanthren-2-one 2,2,2-trifluoroacetate]	< 0.25 µM	< 0.25 µM	1 to 10 µM
